This passage reports IC50 and melting point results from patent publication US20080234297A1, “HSP90 Inhibitors Containing a Zinc Binding Moiety” (priority 2007, published 2008).

Series [1] relates to HDAC (HeLa nuclear extract). The experiment in a line: HDAC fluorimetric assay kit (AK-500, Biomol), inhibition of HDAC enzymatic activity. Format: biochemical. The note with it: Fluor de Lys substrate, graded IC50. The method, then:
(b) An In Vitro Assay which Determines the Ability of a Test Compound to Inhibit HDAC Enzymatic Activity.
HDAC inhibitors were screened using an HDAC fluorimetric assay kit (AK-500, Biomol, Plymouth Meeting, Pa.). Test compounds were dissolved in dimethylsulphoxide (DMSO) to give a 20 mM working stock concentration. Fluorescence was measured on a WALLAC Victor 2 plate reader and reported as relative fluorescence units (RFU). Data were plotted using GraphPad Prism (v4.0a) and IC50's calculated using a sigmoidal dose response curve fitting algorithm. Each assay was setup as follows: Defrosted all kit components and kept on ice until use. Diluted HeLa nuclear extract 1:29 in Assay Buffer (50 mM Tris/Cl, pH 8.0, 137 mM NaCl, 2.7 mM KCl, 1 mM MgCl2). Prepared dilutions of Trichostatin A (TSA, positive control) and tested compounds in assay buffer (5× of final concentration). Diluted Fluor de Lys™ Substrate in assay buffer to 100 uM (50 fold=2× final). Diluted Fluor de Lys™ developer concentrate 20-fold (e.g. 50 μl plus 950 μl Assay Buffer) in cold assay buffer. Second, diluted the 0.2 mM Trichostatin A 100-fold in the 1× Developer (e.g. 10 μl in 1 ml; final Trichostatin A concentration in the 1× Developer=2 μM; final concentration after addition to HDAC/Substrate reaction=1 μM). Added Assay buffer, diluted trichostatin A or test inhibitor to appropriate wells of the microtiter plate. Added diluted HeLa extract or other HDAC sample to all wells except for negative controls. Allowed diluted Fluor de Lys™ Substrate and the samples in the microtiter plate to equilibrate to assay temperature (e.g. 25 or 37° C. Initiated HDAC reactions by adding diluted substrate (25 μl) to each well and mixing thoroughly. Allowed HDAC reactions to proceed for 1 hour and then stopped them by addition of Fluor de Lys™ Developer ([…]). Incubated plate at room temperature (25° C.) for 10-15 min. Read samples in a microtiter-plate reading fluorimeter capable of excitation at a wavelength in the range 350-380 nm and detection of emitted light in the range 440-460 nm.
(§1) The following TABLE B lists compounds representative of the invention and their activity in HDAC and HSP90 assays. In these assays, the following grading was used: I≧10 μM, 10 μM>II>1 μM, 1 μM>III>0.1 μM, and IV≦0.1 μM for IC50.

A further series deals with HSP90. The experiment in a line: Hsp90 chaperone assay (refolding of heat-denatured luciferase). Format: biochemical. The conditions noted are these: luminescence readout, graded IC50. Here is the method:
(a) An In Vitro Assay which Determines the Ability of a Test Compound to Inhibit Hsp90 Chaperone Activity.
The Hsp90 chaperone assay was performed to measure the ability of HSP90 protein to refold the heat-denatured luciferase protein. HSP90 was first incubated with different concentrations of test compounds in denaturation buffer (25 mM Tris, pH7.5, 8 mM MgSO4, 0.01% bovine gamma globulin and 10% glycerol) at room temperature for 30 min. Luciferase protein was added to denaturation mix and incubated at 50° C. for 8 min. The final concentration of HSP90 and luciferase in denaturation mixture were 0.375 μM and 0.125 μM respectively. A 5 μl sample of the denatured mix was diluted into 25 μl of renaturation buffer (25 mM Tris, pH7.5, 8 mM MgSO4, 0.01% bovine gamma globulin and 10% glycerol, 0.5 mM ATP, 2 mM DTT, 5 mM KCl, 0.3 μM HSP70 and 0.15 μM HSP40). The renaturation reaction was incubated at room temperature for 150 min, followed by dilution of 10 μl of the renatured sample into 90 μl of luciferin reagent (Luclite, PerkinElmer Life Science). The mixture was incubated at dark for 5 min before reading the luminescence signal on a TopCount plate reader (PerkinElmer Life Science).
as §1

As a reminder, the IC50 is the point on the concentration scale where inhibition reaches its midpoint. The low end stands for greater potency, the high end for weaker potency. Usually melting point stands for the temperature of the solid-liquid transition.

Turning to `Nc1ncnc2c1nc(Sc1cc3c(cc1I)OCO3)n2CCNCCCCCCC(=O)NO` [Compound 39, 7-(2-(6-amino-8-(6-iodobenzo[d][1,3]dioxol-5-ylthio)-9H-purin-9-yl)ethylamino)-N-hydroxyheptanamide], the results for the IC50 (in series [1]; at HSP90) were ≤ 0.1 µM and 0.1 to 1 µM, respectively.

For `C#CCCCn1c(Sc2cccc(OCCCCCC(=O)NO)c2)nc2c(N)ncnc21` [Compound 18, 6-(3-(6-amino-9-(pent-4-ynyl)-9H-purin-8-ylthio)phenoxy)-N-hydroxyhexanamide], the values for the half-maximal inhibitory concentration (IC50) (in series [1]; against HSP90) were ≤ 0.1 µM and ≥ 10 µM, respectively.

As for `Nc1ncnc2c1nc(Sc1cc3c(cc1Br)OCO3)n2CC(=O)NO` [Compound 1, 2-(6-amino-8-(6-bromobenzo[d][1,3]dioxol-5-ylthio)-9H-purin-9-yl)-N-hydroxyacetamide], the melting point was 230 °C (dec.).

For `Nc1ncnc2c1nc(Sc1cc3c(cc1Br)OCO3)n2CCOCCCCC(=O)NO` [Compound 28, 5-(2-(6-amino-8-(6-bromobenzo[d][1,3]dioxol-5-ylthio)-9H-purin-9-yl)ethoxy)-N-hydroxypentanamide], the IC50 in series [1] is 1 to 10 µM; against HSP90, ≥ 10 µM.

In the case of `Nc1ncnc2c1nc(Sc1cc3c(cc1I)OCO3)n2CCCCCCC(=O)NO` [Compound 32, 7-(6-amino-8-(6-iodobenzo[d][1,3]dioxol-5-ylthio)-9H-purin-9-yl)-N-hydroxyheptanamide], the IC50 (in series [1]; at HSP90) was ≤ 0.1 µM each time.

In the case of `Nc1ncnc2c1nc(Sc1cc3c(cc1Br)OCO3)n2CCNCCCCCC(=O)NO` [Compound 23, 6-(2-(6-amino-8-(6-bromobenzo[d][1,3]dioxol-5-ylthio)-9H-purin-9-yl)ethylamino)-N-hydroxyhexanamide], the figures for the IC50 (in series [1]; against HSP90) were ≤ 0.1 µM and 0.1 to 1 µM, respectively.

With `Nc1ncnc2c1nc(Sc1cc3c(cc1Br)OCO3)n2CCCCCC(=O)NO` [Compound 5, 6-(6-amino-8-(6-bromobenzo[d][1,3]dioxol-5-ylthio)-9H-purin-9-yl)-N-hydroxyhexanamide], the half-inhibitory concentration (IC50) (in series [1]; on HSP90) was 0.1 to 1 µM in each case.

With `Nc1ncnc2c1nc(Sc1cc3c(cc1Br)OCO3)n2CCOCCCC(=O)NO` [Compound 27, 4-(2-(6-amino-8-(6-bromobenzo[d][1,3]dioxol-5-ylthio)-9H-purin-9-yl)ethoxy)-N-hydroxybutanamide], the IC50 (in series [1]; on HSP90) was ≥ 10 µM in each case.

As for `Nc1ncnc2c1nc(Sc1cc3c(cc1Br)OCO3)n2CCNCCCCCCC(=O)NO` [Compound 24, 7-(2-(6-amino-8-(6-bromobenzo[d][1,3]dioxol-5-ylthio)-9H-purin-9-yl)ethylamino)-N-hydroxyheptanamide], the half-maximal inhibitory concentration (IC50) in series [1] was ≤ 0.1 µM; against HSP90 it was 0.1 to 1 µM.

For `Nc1ncnc2c1nc(Sc1cc3c(cc1Br)OCO3)n2CCNCCCCCCCC(=O)NO` [Compound 41, 8-(2-(6-amino-8-(6-bromobenzo[d][1,3]dioxol-5-ylthio)-9H-purin-9-yl)ethylamino)-N-hydroxyoctanamide], the IC50 in series [1] was ≤ 0.1 µM.

As to `Nc1ncnc2c1nc(Sc1cc3c(cc1Br)OCO3)n2CCOCCCCCCC(=O)NO` [Compound 30, 7-(2-(6-amino-8-(6-bromobenzo[d][1,3]dioxol-5-ylthio)-9H-purin-9-yl)ethoxy)-N-hydroxyheptanamide], the values for the half-inhibitory concentration (IC50) (in series [1]; against HSP90) were ≤ 0.1 µM and ≥ 10 µM, respectively.

For the compound `Nc1ncnc2c1nc(Sc1cc3c(cc1Br)OCO3)n2CCOCC(=O)NO` [Compound 40], the concentration for half-maximal inhibition (IC50) (in series [1]; on HSP90) was ≥ 10 µM in each case.

For `Nc1nccc2c1nc(Sc1cc3c(cc1Cl)OCO3)n2CCCCCCC(=O)NO` [Compound 34, 7-(4-amino-2-(6-chlorobenzo[d][1,3]dioxol-5-ylthio)-1H-imidazo[4,5-c]pyridin-1-yl)-N-hydroxyheptanamide], the IC50 in series [1] is ≤ 0.1 µM; on HSP90 it was 1 to 10 µM.

For `Nc1nccc2c1nc(Sc1cc3c(cc1I)OCO3)n2CCCCCCC(=O)NO` [Compound 36, 7-(4-amino-2-(6-iodobenzo[d][1,3]dioxol-5-ylthio)-1H-imidazo[4,5-c]pyridin-1-yl)-N-hydroxyheptanamide], the IC50 is ≤ 0.1 µM in series [1] and 0.1 to 1 µM against HSP90.

As to `Nc1nccc2c1nc(Sc1cc3c(cc1Br)OCO3)n2CCCCCCC(=O)NO` [Compound 35, 7-(4-amino-2-(6-bromobenzo[d][1,3]dioxol-5-ylthio)-1H-imidazo[4,5-c]pyridin-1-yl)-N-hydroxyheptanamide], the IC50 is ≤ 0.1 µM in series [1] and 1 to 10 µM against HSP90.

`Nc1ncnc2c1nc(Sc1cc3c(cc1Br)OCO3)n2CCNCC(=O)NO` [Compound 33]: the IC50 in series [1] is ≥ 10 µM; on HSP90, 0.1 to 1 µM.

In turn, `C#CCCCn1c(Sc2cccc(OCC(=O)NO)c2)nc2c(N)ncnc21` [Compound 14, 2-(3-(6-amino-9-(pent-4-ynyl)-9H-purin-8-ylthio)phenoxy)-N-hydroxyacetamide] registered a half-maximal inhibitory concentration (IC50) in series [1] of 0.1 to 1 µM.

As to `Nc1ncnc2c1nc(Sc1cc3c(cc1Br)OCO3)n2CCNCCC(=O)NO` [Compound 20, 3-(2-(6-amino-8-(6-bromobenzo[d][1,3]dioxol-5-ylthio)-9H-purin-9-yl)ethylamino)-N-hydroxypropanamide], the IC50 in series [1] is ≥ 10 µM; against HSP90, 0.1 to 1 µM.

For the compound `Nc1ncnc2c1nc(Sc1cc3c(cc1I)OCO3)n2CCNCCCCCC(=O)NO` [Compound 38, 6-(2-(6-amino-8-(6-iodobenzo[d][1,3]dioxol-5-ylthio)-9H-purin-9-yl)ethylamino)-N-hydroxyhexanamide], the IC50 (in series [1]; against HSP90) was 0.1 to 1 µM in each case.

As for `Nc1ncnc2c1nc(Sc1cc3c(cc1Br)OCO3)n2CCCCCCC(=O)NO` [Compound 6, 7-(6-amino-8-(6-bromobenzo[d][1,3]dioxol-5-ylthio)-9H-purin-9-yl)-N-hydroxyheptanamide], the IC50 in series [1] is ≤ 0.1 µM; against HSP90, 0.1 to 1 µM.

Consider `Nc1ncnc2c1nc(Sc1cc3c(cc1Cl)OCO3)n2CCCCCCC(=O)NO` [Compound 31, 7-(6-amino-8-(6-chlorobenzo[d][1,3]dioxol-5-ylthio)-9H-purin-9-yl)-N-hydroxyheptanamide], for which the figures for the IC50 (in series [1]; at HSP90) were ≤ 0.1 µM and 1 to 10 µM, respectively.

For `C#CCCCn1c(Sc2cccc(C(=O)NO)c2)nc2c(N)ncnc21` [Compound 13], the half-maximal inhibitory concentration (IC50) (in series [1]; against HSP90) was ≥ 10 µM in each case.

Take `Nc1ncnc2c1nc(Sc1cc3c(cc1Br)OCO3)n2CCOCCCCCC(=O)NO` [Compound 29, 6-(2-(6-amino-8-(6-bromobenzo[d][1,3]dioxol-5-ylthio)-9H-purin-9-yl)ethoxy)-N-hydroxyhexanamide]: the IC50 in series [1] is 1 to 10 µM; on HSP90, ≥ 10 µM.

Take `Nc1ncnc2c1nc(Sc1cc3c(cc1I)OCO3)n2CCNCC(=O)NO` [Compound 37]: the IC50 in series [1] is ≥ 10 µM; at HSP90 it was 0.1 to 1 µM.

For the compound `COc1ccc(I)c(Sc2nc3c(N)ncnc3n2CCCCCCC(=O)NO)c1` [Compound 12, 7-(6-amino-8-(2-iodo-5-methoxyphenylthio)-9H-purin-9-yl)-N-hydroxyheptanamide], the IC50 in series [1] was ≤ 0.1 µM.

With `C#CCCCn1c(Sc2cccc(OCCCC(=O)NO)c2)nc2c(N)ncnc21` [Compound 16, 4-(3-(6-amino-9-(pent-4-ynyl)-9H-purin-8-ylthio)phenoxy)-N-hydroxybutanamide], the concentration for half-maximal inhibition (IC50) in series [1] was ≤ 0.1 µM; at HSP90 it was ≥ 10 µM.
